{"source": "paper PMC11855827", "about": "“High-Throughput Screening of Five Compound Libraries for Anthelmintic Activity and Toxicity Leads to the Discovery of Two Flavonoid Compounds” (International Journal of Molecular Sciences, 2025)", "key": {"C. elegans [1]": {"tested_on": "C. elegans", "test": "microbe, parasite or virus in culture", "conditions": "Caenorhabditis elegans"}, "C. elegans [2]": {"tested_on": "C. elegans", "test": "C. elegans motility dose-response (DR) assay", "design": "species or system Caenorhabditis elegans"}, "C. elegans [3]": {"tested_on": "C. elegans"}, "[4]": {"tested_on": "H. contortus susceptible strain", "test": "Larval migration inhibition test (LMIT)", "design": "species or system Haemonchus contortus", "conditions": "L3, 100 μM, NE = Not Effective at 100 μM, control ivermectin 8.75 µg/mL; for inhibition at 100 µM: Haemonchus contortus, 24 h", "excerpt": "Eggs and third instar larvae (L3) of H. contortus from a field strain and a resistant strain of T. circumcincta were used in the current trials. These parasitic forms were obtained from fresh feces of Merino and Churra sheep experimentally infected at the experimental farm of the Instituto de Ganadería de Montaña (IGM, CSIC, Gruyeros, León, Spain) and purified according to previously described methods. Briefly, eggs were taken from fresh feces, washed, centrifuged and floated with a saturated sodium chloride solution, then concentrated, counted and used in the assays. L3 were obtained by culturing feces at 25 °C for 13 d. L3 larvae were […] in 0.5% sodium hypochlorite solution for 10 min at room temperature and washed to avoid excess salt. After washing, they were concentrated and counted for use.\nThe viability of H. contortus larvae was assessed by the larval migration inhibition test (LMIT) according to previously described methods. Briefly, 700 µL aliquots containing 500–600 L3 were prepared for each compound. […] After a 24 h incubation at 28 °C, the compound was removed by three washes, leaving a final volume of 1400 µL. After the washes, three 400 µL aliquots were taken from each tube and transferred to a 96-well plate with a MultiScreen mesh filter. The plates were incubated for a further 24 h at 28 °C to allow the motile L3 to pass through the 20 µm mesh for counting. Then, the number of larvae present in each well was counted to determine percentage of larval migration for each compound: % Larval migration=number of larvae migrating in compound wells/number of larvae migrating in negative control×100\nFor the larvae, ivermectin at 8.75 µg/mL and DMSO 0.5% (v/v) were used as controls and at least 12 replicates were performed. […] EC50 were determined by plotting the percentage of viability of the L1 against the concentration of each compound, using the nonlinear fit analysis provided by the SigmaPlot® 10.1."}, "[5]": {"tested_on": "H. contortus susceptible strain", "test": "Egg hatch inhibition (EHI), ovicidal effect", "design": "species or system Haemonchus contortus", "conditions": "susceptible strain, 100 μM, NE = Not Effective at 100 μM, control thiabendazole 0.1 µg/mL; for inhibition at 100 µM: Haemonchus contortus"}, "[6]": {"tested_on": "T. circumcincta resistant strain", "test": "Egg hatch inhibition (EHI), ovicidal effect", "design": "species or system Teladorsagia circumcincta", "conditions": "resistant strain, 100 μM; NE = Not Effective at 100 μM; control thiabendazole 0.1 µg/mL"}, "[7]": {"conditions": "0 h, read-out: Inhibition (%) 110 μM (0 h), C. elegans L4 motility, 110 μM, 0 h, mean ± SD of four experiments"}, "[8]": {"conditions": "24 h, read-out: Inhibition (%) 110 μM (24 h), C. elegans L4 motility, 110 μM, 24 h, mean ± SD of four experiments"}, "[9]": {"conditions": "Caenorhabditis elegans, 24 h, read-out: EC50 (μM) at 24 h, C. elegans motility, DR assay, 24 h"}, "[10]": {"conditions": "0 h, read-out: Percentage of motility inhibition 0 h, Table S2, C. elegans SS assay, 110 μM, 0 h, averages of 4 data points"}, "[11]": {"conditions": "24 h, read-out: Percentage of motility inhibition 24 h, Table S2, C. elegans SS assay, 110 μM, 24 h, averages of 4 data points"}, "[12]": {"conditions": "Table S2, C. elegans SS assay, 110 μM, 0 h, averages of 4 data points"}, "[13]": {"conditions": "Table S2, C. elegans SS assay, 110 μM, 24 h, averages of 4 data points"}}, "note": "“And” between values parts separate entries of the source, which are not always exact repeats. Identical values can stand only once. Like-named read-outs stand apart in the source and are kept apart here.", "data": [{"smiles": "NC(=O)c1ncn([C@@H]2O[C@H](CO)[C@@H](O)[C@H]2O)n1", "note": "[Ribavirin, reference compound]", "values": [{"measurement": "inhibition at 110 µM", "setting": "C. elegans [1]; [7]", "value": "91 ± 5", "unit": "%"}, {"measurement": "inhibition at 110 µM", "setting": "C. elegans [1]; [8]", "value": "76 ± 11", "unit": "%"}, {"measurement": "EC50", "setting": "C. elegans [2]; [9]", "value": "> 60", "unit": "µM"}]}, {"smiles": "COC(=O)[C@@H]1[C@H]2C[C@H]3c4[nH]c5ccccc5c4CCN3C[C@@H]2CC[C@@H]1O", "note": "[Yohimbine]", "values": [{"measurement": "Percentage of motility inhibition 0 h", "setting": "C. elegans [3]; 0 h, 110 μM", "value": 8, "unit": "%"}, {"measurement": "inhibition at 110 µM", "setting": "C. elegans [1]; [10]", "value": 7, "unit": "%"}]}, {"smiles": "Oc1ccc(/C=C/c2cc(O)cc(O)c2)cc1", "note": "[Resveratrol]", "values": [{"measurement": "inhibition at 100 µM", "setting": "[4]", "value": 0, "unit": "%"}, {"measurement": "inhibition at 100 µM", "setting": "[5]", "value": 0, "unit": "%"}, {"measurement": "inhibition at 110 µM", "setting": "C. elegans [1]; [7]", "value": "82 ± 8", "unit": "%"}, {"measurement": "inhibition at 110 µM", "setting": "C. elegans [1]; [8]", "value": "7 ± 7", "unit": "%"}, {"measurement": "EC50", "setting": "C. elegans [2]; [9]", "value": "27.7 ± 1.5", "unit": "µM"}]}, {"smiles": "CC1(C)CCC[C@]2(C)[C@@H](C=O)C(C=O)=CC[C@@H]12", "note": "[Polygodial]", "values": [{"measurement": "inhibition at 100 µM", "setting": "[4]", "value": 0, "unit": "%"}, {"measurement": "inhibition at 100 µM", "setting": "[5]", "value": 0, "unit": "%"}, {"measurement": "inhibition at 110 µM", "setting": "C. elegans [1]; [7]", "value": 0, "unit": "%"}, {"measurement": "inhibition at 110 µM", "setting": "C. elegans [1]; [8]", "value": "93 ± 4", "unit": "%"}, {"measurement": "EC50", "setting": "C. elegans [2]; [9]", "value": "33.2 ± 6.4", "unit": "µM"}]}, {"smiles": "O=C(O)[C@H]1O[C@@H](Oc2cc3oc(-c4ccccc4)cc(=O)c3c(O)c2O)[C@H](O)[C@@H](O)[C@@H]1O", "note": "[Baicalin]", "values": [{"measurement": "Percentage of motility inhibition 24 h", "setting": "C. elegans [3]; 24 h, 110 µM", "value": 24, "unit": "%"}, {"measurement": "inhibition at 110 µM", "setting": "C. elegans [1]; [11]", "value": 15, "unit": "%"}]}, {"smiles": "O=C1CCC[C@@H]2[C@H]3CCC[N+]4([O-])CCC[C@@H](CN12)[C@@H]34", "note": "(stereo partly drawn) [Oxymatrine]", "values": [{"measurement": "Percentage of motility inhibition 24 h", "setting": "C. elegans [3]; 24 h, 110 µM", "value": 6, "unit": "%"}, {"measurement": "inhibition at 110 µM", "setting": "C. elegans [1]; [11]", "value": 11, "unit": "%"}]}, {"smiles": "COC(=O)[C@]1(C)CC[C@]2(C)CC[C@]3(C)C4=CC=C5C(=CC(=O)C(O)=C5C)[C@]4(C)CC[C@@]3(C)[C@@H]2C1", "note": "[Pristimerin]", "values": [{"measurement": "Percentage of motility inhibition 0 h", "setting": "C. elegans [3]; [12]", "value": 15, "unit": "%"}, {"measurement": "Percentage of motility inhibition 24 h", "setting": "C. elegans [3]; [13]", "value": 24, "unit": "%"}, {"measurement": "inhibition at 110 µM", "setting": "C. elegans [1]; [10]", "value": 29, "unit": "%"}, {"measurement": "inhibition at 110 µM", "setting": "C. elegans [1]; [11]", "value": 23, "unit": "%"}]}, {"smiles": "CC1=C[C@]23C(=O)[C@@H](C=C(CO)[C@@H](O)[C@]2(O)[C@H]1O)[C@H]1[C@@H](C[C@H]3C)C1(C)C", "note": "[Ingenol]", "values": [{"measurement": "Percentage of motility inhibition 0 h", "setting": "C. elegans [3]; [12]", "value": "0% and 1%"}, {"measurement": "inhibition at 110 µM", "setting": "C. elegans [1]; [11]", "value": 19, "unit": "%"}]}, {"smiles": "CC(C)[C@]12O[C@H]1[C@@H]1O[C@]13[C@]1(O[C@H]1C[C@H]1C4=C(CC[C@@]13C)C(=O)OC4)[C@@H]2O", "note": "[Triptolide]", "values": [{"measurement": "inhibition at 110 µM", "setting": "C. elegans [1]; 0 h, read-out: Inhibition (%) 110 μM (0 h)", "value": 15, "unit": "%"}, {"measurement": "inhibition at 110 µM", "setting": "C. elegans [1]; 24 h, read-out: Inhibition (%) 110 μM (24 h)", "value": "72 ± 1", "unit": "%"}, {"measurement": "inhibition at 110 µM", "setting": "C. elegans [1]; [11]", "value": 71, "unit": "%"}, {"measurement": "EC50", "setting": "C. elegans [2]; Caenorhabditis elegans, read-out: EC50 (μM) at 24 h, C. elegans motility, DR assay", "value": "> 60", "unit": "µM"}]}, {"smiles": "CC1(C)CC[C@]2(C(=O)O)CC[C@]3(C)C(=CC[C@@H]4[C@@]5(C)CC[C@H](O)C(C)(C)[C@@H]5CC[C@]43C)[C@@H]2C1", "note": "[Oleanolic Acid]", "values": [{"measurement": "Percentage of motility inhibition 24 h", "setting": "C. elegans [3]; 110 µM", "value": "1% and 0%"}, {"measurement": "inhibition at 110 µM", "setting": "C. elegans [1]; 0 h, read-out: Percentage of motility inhibition 0 h", "value": 4, "unit": "%"}]}, {"smiles": "CC(C)=CCc1c(-c2ccc(O)cc2O)oc2c([C@H]3C=C(C)C[C@@H](c4ccc(O)cc4O)[C@@H]3C(=O)c3ccc(O)cc3O)c(O)cc(O)c2c1=O", "note": "[Kuwanon G]", "values": [{"measurement": "H. contortus LMIT (%)", "setting": "[4]", "value": 0.0, "unit": "%"}, {"measurement": "Inhibition (%) 110 μM (0 h)", "setting": "C. elegans [3]; C. elegans L4 motility, 110 μM, 0 h, mean ± SD of four experiments", "value": "0 ± 0", "unit": "%"}, {"measurement": "Inhibition (%) 110 μM (24 h)", "setting": "C. elegans [3]; C. elegans L4 motility, 110 μM, 24 h, mean ± SD of four experiments", "value": "74 ± 5", "unit": "%"}, {"measurement": "Percentage of motility inhibition 24 h", "setting": "C. elegans [3]; [13]", "value": 75, "unit": "%"}, {"measurement": "H. contortus EHI (%)", "setting": "[5]", "value": "9.4 ± 1.8", "unit": "%"}, {"measurement": "EC50", "setting": "C. elegans [2]; read-out: EC50 (μM) at 24 h, C. elegans motility, DR assay", "value": "34.7 ± 1.6", "unit": "µM"}]}, {"smiles": "Nc1ncnc2c1ncn2[C@@H]1O[C@H](CO)[C@@H](O)[C@@H]1O", "note": "[Vidarabine]", "values": [{"measurement": "Percentage of motility inhibition 0 h", "setting": "C. elegans [3]; [12]", "value": 4, "unit": "%"}, {"measurement": "inhibition at 110 µM", "setting": "C. elegans [1]; [11]", "value": 0, "unit": "%"}]}, {"smiles": "CCOc1ccc2nc3cc(N)ccc3c(N)c2c1", "note": "[Ethacridine lactate, reference compound]", "values": [{"measurement": "H. contortus LMIT (%)", "setting": "[4]", "value": "4.9 ± 2.2", "unit": "%"}, {"measurement": "inhibition at 100 µM", "setting": "[5]", "value": "55.8 ± 5.1", "unit": "%"}, {"measurement": "T. circumcincta EHI (%)", "setting": "[6]", "value": "4.0 ± 1.5", "unit": "%"}, {"measurement": "inhibition at 110 µM", "setting": "C. elegans [1]; [7]", "value": "66 ± 26", "unit": "%"}, {"measurement": "inhibition at 110 µM", "setting": "C. elegans [1]; [8]", "value": "87 ± 6", "unit": "%"}, {"measurement": "EC50", "setting": "C. elegans [2]; [9]", "value": "50.1 ± 1", "unit": "µM"}]}]}
